“And” between values parts separate entries of the source, which are not always exact repeats. Equal entries are not always repeated. Toxic doses and inconclusive results are not listed. Square brackets hold non-standard residues; d marks the D form. Peptide text beside a SMILES is read from it. ξ: configuration not given here. ξNle = CCCCC(N)C(=O)O
System: P388 leukemia ip, CD2F1 mice, survival T/C
Assay: NCI In Vivo Anticancer Drug Screen. Data for tumor model P388 Leukemia (intraperitoneal) in CD2F1 (CDF1) mice
Conditions: endpoint: median survival time, higher = longer survival
Summary of the method: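 Mice carrying the transplanted tumor received test compound or vehicle. Survival was recorded in each group, and the value is the treated-group measurement divided by that of the vehicle-treated control group.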

[1] = dose: 50.0 mg/kg/injection, schedule: Q01DX009 (ip), vehicle: saline
[2] = dose: 100.0 mg/kg/injection, schedule: Q01DX009 (ip), vehicle: saline
[3] = dose: 200.0 mg/kg/injection, schedule: Q01DX009 (ip), vehicle: saline
[4] = dose: 50.0 mg/kg/injection, schedule: Q01DX005 (ip), vehicle: saline with Tween-80
[5] = dose: 100.0 mg/kg/injection, schedule: Q01DX005 (ip), vehicle: saline with Tween-80
[6] = dose: 200.0 mg/kg/injection, schedule: Q01DX005 (ip), vehicle: saline with Tween-80
[7] = dose: 25.0 mg/kg/injection, schedule: Q01DX005 (ip), vehicle: Klucel (hydroxypropylcellulose) (HPC)
[8] = dose: 30.0 mg/kg/injection, schedule: Q01DX005 (ip), vehicle: Klucel (hydroxypropylcellulose) (HPC)
[9] = dose: 50.0 mg/kg/injection, schedule: Q01DX005 (ip), vehicle: Klucel (hydroxypropylcellulose) (HPC)
[10] = dose: 100.0 mg/kg/injection, schedule: Q01DX005 (ip), vehicle: Klucel (hydroxypropylcellulose) (HPC)
[11] = dose: 200.0 mg/kg/injection, schedule: Q01DX005 (ip), vehicle: Klucel (hydroxypropylcellulose) (HPC)
[12] = dose: 50.0 mg/kg/injection, schedule: Q01DX009 (ip), vehicle: saline with Tween-80
[13] = dose: 100.0 mg/kg/injection, schedule: Q01DX009 (ip), vehicle: saline with Tween-80
[14] = dose: 200.0 mg/kg/injection, schedule: Q01DX009 (ip), vehicle: saline with Tween-80
[15] = dose: 50.0 mg/kg/injection, schedule: Q01DX005 (ip), vehicle: saline
[16] = dose: 100.0 mg/kg/injection, schedule: Q01DX005 (ip), vehicle: saline
[17] = dose: 200.0 mg/kg/injection, schedule: Q01DX005 (ip), vehicle: saline
[18] = dose: 60.0 mg/kg/injection, schedule: Q01DX005 (ip), vehicle: Klucel (hydroxypropylcellulose) (HPC)
[19] = dose: 120.0 mg/kg/injection, schedule: Q01DX005 (ip), vehicle: Klucel (hydroxypropylcellulose) (HPC)
[20] = dose: 240.0 mg/kg/injection, schedule: Q01DX005 (ip), vehicle: Klucel (hydroxypropylcellulose) (HPC)
[21] = dose: 100.0 mg/kg/injection, schedule: Q04DX003 (ip), vehicle: saline with Tween-80
[22] = dose: 200.0 mg/kg/injection, schedule: Q04DX003 (ip), vehicle: saline with Tween-80

With `CCCc1[nH]n(-c2ccccc2)c(=O)c1N=Nc1cccc(C(F)(F)F)c1` the T/C [1] was 93 % of control, the T/C [2] was 96 % of control and the T/C [3] was 90 % of control.

With `ClCC#CCOc1c(Cl)cccc1Cl` the T/C [1] was 86 % of control, the T/C [2] was 92 % of control and the T/C [3] was 98 % of control.

`CCCCC(NC(=O)CNC(=O)CN)C(=O)O` (stereo not drawn) (H-Gly-Gly-[ξNle]-OH) was tested, and the T/C [4] was 94 % of control, the T/C [5] was 94 % of control and the T/C [6] was 93 % of control.

For `CC1(C)N=C(N)N=C(N)N1c1ccc(F)cc1`, the T/C (dose: 12.5 mg/kg/injection, schedule: Q01DX005 (ip), vehicle: Klucel (hydroxypropylcellulose) (HPC)) was 110 % of control and the T/C [7] was 113 % of control.

With `NC(CCCCNC(=O)c1ccccc1)C(=O)O` (stereo unspecified) the T/C [4] was 101 % of control, the T/C [5] was 93 % of control and the T/C [6] was 99 % of control.

In the case of `CC1(C)N=C(N)N=C(N)N1c1cccc(CNc2ccc(S(N)(=O)=O)cc2)c1`, the T/C (dose: 7.5 mg/kg/injection, schedule: Q01DX005 (ip), vehicle: Klucel (hydroxypropylcellulose) (HPC)) is reported as 102 % of control, the T/C (dose: 15.0 mg/kg/injection, schedule: Q01DX005 (ip), vehicle: Klucel (hydroxypropylcellulose) (HPC)) is reported as 100 % of control and the T/C [8] is reported as 102 % of control.

`C#CCOc1ccccc1O` was tested, and the T/C [2] was 100 % of control, the T/C [3] was 110 % of control and the T/C (dose: 400.0 mg/kg/injection, schedule: Q01DX009 (ip), vehicle: saline) was 115 % of control.

`COc1ccc(C(O)c2cnc(C)n2Cc2ccccc2)cc1` (stereo unspecified) was tested, and the T/C (dose: 60.0 mg/kg/injection, schedule: Q01DX005 (ip), vehicle: saline with Tween-80) was 99 % of control, the T/C (dose: 120.0 mg/kg/injection, schedule: Q01DX005 (ip), vehicle: saline with Tween-80) was 100 % of control and the T/C (dose: 240.0 mg/kg/injection, schedule: Q01DX005 (ip), vehicle: saline with Tween-80) was 94 % of control.

`CCOC(=O)Cn1cnc2sc3c(c2c1=O)CCCC3` was tested, and the T/C [4] was 100 % of control, the T/C [5] was 98 % of control and the T/C [6] was 89 % of control.

In the case of `CC(C)CC(NC(=O)C(Cc1ccccc1)NC(=O)CNC(=O)CN)C(=O)O` (stereo unspecified) (H-GGFL-OH; configuration not given here), the T/C (dose: 12.5 mg/kg/injection, schedule: Q01DX005 (ip), vehicle: water) is reported as 100 % of control, the T/C (dose: 25.0 mg/kg/injection, schedule: Q01DX005 (ip), vehicle: water) is reported as 100 % of control and the T/C (dose: 50.0 mg/kg/injection, schedule: Q01DX005 (ip), vehicle: water) is reported as 96 % of control. For the same compound, the T/C (dose: 100.0 mg/kg/injection, schedule: Q01DX005 (ip), vehicle: water) was 102 % of control and the T/C (dose: 200.0 mg/kg/injection, schedule: Q01DX005 (ip), vehicle: water) was 96 % of control.

In the case of `C=Cc1c(C#N)nc(C)c(C)c1-c1ccc(OC)c(OC)c1OCc1ccccc1`, the T/C [9] is reported as 101 % of control, the T/C [10] is reported as 95 % of control and the T/C [11] is reported as 108 % of control.

In the case of `O=C1C=C(Br)C(=O)C(Br)=C1`, the T/C (dose: 1.56 mg/kg/injection, schedule: Q01DX009 (ip), vehicle: distilled water + Tween-80) is reported as 101 % of control, the T/C (dose: 3.13 mg/kg/injection, schedule: Q01DX009 (ip), vehicle: distilled water + Tween-80) is reported as 95 % of control and the T/C (dose: 6.25 mg/kg/injection, schedule: Q01DX009 (ip), vehicle: distilled water + Tween-80) is reported as 100 % of control.

`CCCCCCOCC(=O)OC` was tested, and the T/C [12] was 103 % of control, the T/C [13] was 102 % of control and the T/C [14] was 102 % of control.

With `CCOC1=CC(=O)/C(=C/O[Si](C)(C)C)CC1` the T/C [12] was 103 % of control and the T/C [13] was 99 % of control.

With `CC(C)(C)OC(=O)NC(CCC(N)=O)C(=O)O` (stereo unspecified) the T/C [15] was 104 % of control, the T/C [16] was 104 % of control and the T/C [17] was 103 % of control.

For `COc1ccccc1[B-]12OCC[N+]1(CNC(=O)c1ccccc1O)CCO2` (stereo unspecified), the T/C [9] was 102 % of control, the T/C [10] was 103 % of control and the T/C [11] was 103 % of control.

In the case of `NNC(=O)CN1c2ccccc2Sc2ccc(Cl)cc21`, the T/C (dose: 6.25 mg/kg/injection, schedule: Q01DX009 (ip), vehicle: Klucel (hydroxypropylcellulose) (HPC)) is reported as 104 % of control, the T/C (dose: 12.5 mg/kg/injection, schedule: Q01DX009 (ip), vehicle: Klucel (hydroxypropylcellulose) (HPC)) is reported as 95 % of control and the T/C (dose: 25.0 mg/kg/injection, schedule: Q01DX009 (ip), vehicle: Klucel (hydroxypropylcellulose) (HPC)) is reported as 97 % of control. The T/C (dose: 50.0 mg/kg/injection, schedule: Q01DX009 (ip), vehicle: Klucel (hydroxypropylcellulose) (HPC)) was 99 % of control.

In the case of `O=C1C(Cl)=C(Cl)C(=O)N1c1ccc(Br)cc1Br`, the T/C (dose: 100.0 mg/kg/injection, schedule: Q04DX002 (ip), vehicle: Klucel (hydroxypropylcellulose) (HPC)) is reported as 105 % of control, the T/C (dose: 200.0 mg/kg/injection, schedule: Q04DX002 (ip), vehicle: Klucel (hydroxypropylcellulose) (HPC)) is reported as 105 % of control and the T/C (dose: 400.0 mg/kg/injection, schedule: Q04DX002 (ip), vehicle: Klucel (hydroxypropylcellulose) (HPC)) is reported as 100 % of control.

With `CN1C(=O)C2(C)SSC1(C)C(=O)N2C` the T/C (dose: 6.25 mg/kg/injection, schedule: Q01DX009 (ip), vehicle: saline) was 110 % of control, the T/C (dose: 12.5 mg/kg/injection, schedule: Q01DX009 (ip), vehicle: saline) was 108 % of control and the T/C (dose: 25.0 mg/kg/injection, schedule: Q01DX009 (ip), vehicle: saline) was 107 % of control.

For `COC(=O)C1=C/N(C)CCC/C(C(N)=O)=C\1`, the T/C [9] was 89 % of control, the T/C [10] was 102 % of control and the T/C [11] was 94 % of control.

With `CCCCCCCC(=O)Nc1cc2c3c(c1)CCC(=O)N3CCC2` the T/C [9] was 100 % of control, the T/C [10] was 100 % of control and the T/C [11] was 98 % of control.

`CC(C)(C)n1nc(C2CC2)c(Br)c1NC(=O)c1ccccc1F` was tested, and the T/C [8] was 100 % of control, the T/C [18] was 98 % of control and the T/C [19] was 104 % of control. For the same compound, the T/C [20] was 100 % of control.

For `CN(C)N1C(=O)C2C3C=CC(O3)C2C1=O` (stereo unspecified), the T/C [15] was 104 % of control, the T/C [16] was 109 % of control and the T/C [17] was 100 % of control.

`O=C1c2ccccc2S(=O)(=O)N1Cc1ccccc1CN1C(=O)c2ccccc2S1(=O)=O` was tested, and the T/C [9] was 92 % of control, the T/C [10] was 89 % of control and the T/C [11] was 89 % of control.

With `OC(Cc1cncc(CC(O)(C(F)(F)F)C(F)(F)F)n1)(C(F)(F)F)C(F)(F)F` the T/C [1] was 99 % of control, the T/C [2] was 98 % of control and the T/C [3] was 102 % of control.

With `CC12CCCC([N+](=O)[O-])(C1)NC(=O)C2C#N` (stereo unspecified) the T/C [18] was 108 % of control, the T/C [19] was 95 % of control and the T/C [20] was 100 % of control.

For `CNNCc1ccc(C(=O)NC(N)=O)cc1`, the T/C (dose: 300.0 mg/kg/injection, schedule: Q01DX009 (ip), vehicle: saline) was 170 % of control.

With `CCN(CC)c1ccc2nc3c4ccccc4c(=O)cc-3n(-c3ccccc3)c2c1` the T/C [13] was 99 % of control, the T/C [14] was 101 % of control and the T/C (dose: 400.0 mg/kg/injection, schedule: Q01DX009 (ip), vehicle: saline with Tween-80) was 115 % of control.

`CCOC(=O)c1ccc(=O)n2c1[nH]c1ccccc12` was tested, and the T/C (dose: 12.5 mg/kg/injection, schedule: Q01DX005 (ip), vehicle: saline with Tween-80) was 105 % of control, the T/C (dose: 25.0 mg/kg/injection, schedule: Q01DX005 (ip), vehicle: saline with Tween-80) was 108 % of control and the T/C [4] was 100 % of control and 108 % of control.

For `Nc1cc2ccccc2c(Br)n1`, the T/C (dose: 100.0 mg/kg/injection, schedule: Q01DX001 (ip), vehicle: saline with Tween-80) was 100 % of control, the T/C (dose: 200.0 mg/kg/injection, schedule: Q01DX001 (ip), vehicle: saline with Tween-80) was 95 % of control and the T/C (dose: 400.0 mg/kg/injection, schedule: Q01DX001 (ip), vehicle: saline with Tween-80) was 100 % of control.

With `O/N=C(\CC(O)(C(F)(F)F)C(F)(F)F)c1cccs1` the T/C [21] was 100 % of control, the T/C [22] was 95 % of control and the T/C (dose: 400.0 mg/kg/injection, schedule: Q04DX003 (ip), vehicle: saline with Tween-80) was 108 % of control.

For `C=C1C(=O)O[C@@H]2[C@@H]3O[C@@](C)(CC[C@H](OC(C)=O)[C@@H]3CO)C[C@@H](OC(=O)/C(=C\C)COC(C)=O)[C@@H]12`, the T/C [7] was 101 % of control.

For `CCC(C)(C)N=C(NC(=O)C(F)(F)F)Nc1cccnc1`, the T/C [21] was 93 % of control and the T/C [22] was 94 % of control.

Reference: PubChem BioAssay AID330 (DTP/NCI, 2004)
